# Laboratory results published in ChEMBL document CHEMBL1201862, “PubChem BioAssay data set” (2004).
#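 Results reflect a 48-hour exposure of cells in 96-well plates to compound at five concentrations. Here, GI50 denotes the concentration required for 50% inhibition of growth.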 Calls of active or inactive are those of the source. Rule as the data show it: active = GI50 up to about 1.1 µM and inactive = higher.
# Legend:
# Experiment in all cases: NCI-60 cell line screen, 48 h
# [1] = test system: XF498
# [2] = test system: LXFL 529
# [3] = test system: M19-MEL
# [4] = test system: RXF 631
# [5] = test system: DLD-1
# [6] = test system: KM-20L2
# [7] = test system: DMS-273
# [8] = test system: DMS-114
# [9] = test system: HOP-18
SMILES,GI50 [1],GI50 [2],GI50 [3],GI50 [4],GI50 [5],GI50 [6],GI50 [7],GI50 [8],GI50 [9]
C=CCNC1=C(C(=O)OCC)C(=O)CO1,> 100 µM (inactive),> 100 µM (inactive),> 100 µM (inactive),> 100 µM (inactive),> 100 µM (inactive),> 100 µM (inactive),> 100 µM (inactive),> 100 µM (inactive),–
C=CCNC(=S)N1CC(C)C(=O)Nc2cc(Cl)ccc21 (centres undefined),–,> 100 µM (inactive),> 100 µM (inactive),–,> 100 µM (inactive),> 100 µM (inactive),> 100 µM (inactive),> 100 µM (inactive),39.4 µM (inactive)
COc1ccc2c(c1)C1(C=N2)CCN(C(C)=O)CC1,–,> 100 µM (inactive),> 100 µM (inactive),> 100 µM (inactive),> 100 µM (inactive),> 100 µM (inactive),> 100 µM (inactive),60.5 µM (inactive),41.5 µM (inactive)
CC1(C)CC(=O)C(CC2C(=O)c3ccccc3C2=O)C(=O)C1,–,> 100 µM (inactive),> 100 µM (inactive),–,> 100 µM (inactive),> 100 µM (inactive),> 100 µM (inactive),> 100 µM (inactive),> 100 µM (inactive)
C=CCC(C)(C(=O)NCCC)C(=O)c1ccccc1O (centres undefined),–,> 100 µM (inactive),> 100 µM (inactive),–,> 100 µM (inactive),> 100 µM (inactive),> 100 µM (inactive),> 100 µM (inactive),> 100 µM (inactive)
C=C1C(=O)O[C@@H]2C[C@@H](C)[C@@H]3C=CC(=O)[C@@]3(C)[C@@H](O)[C@H]12 [HELENALIN],–,0.493 µM (active),2.82 µM (inactive),–,0.557 µM (active),1.73 µM (inactive),1.53 µM (inactive),1.45 µM (inactive),2.02 µM (inactive)
CC(=O)Nc1ccc(C(=O)NN2C(=O)C(Cl)C2c2ccc(O)cc2)cc1 (centres undefined),52.8 µM (inactive),> 100 µM (inactive),> 100 µM (inactive),–,> 100 µM (inactive),> 100 µM (inactive),> 100 µM (inactive),–,–
c1ccc2[nH]c(-c3nc4ccccc4o3)nc2c1,> 100 µM (inactive),> 100 µM (inactive),> 100 µM (inactive),–,> 100 µM (inactive),> 100 µM (inactive),> 100 µM (inactive),> 100 µM (inactive),–
C[n+]1c(Cl)cn2c3nc4ccccc4nc3c([O-])c(C#N)c21,> 100 µM (inactive),> 100 µM (inactive),< 0.01 µM (active),–,< 0.01 µM (active),–,> 100 µM (inactive),> 100 µM (inactive),> 100 µM (inactive)
COc1cc(Br)c(CC2(C#N)c3ccccc3C3C(N2C(=O)c2ccccc2)C3(Cl)Cl)cc1OC (centres undefined),> 65.5 µM (inactive),4.01 µM (inactive),–,–,19.3 µM (inactive),> 65.5 µM (inactive),2.69 µM (inactive),16.3 µM (inactive),> 65.5 µM (inactive)
OCCCCOC(c1ccccc1)(c1ccccc1)c1ccccc1,> 100 µM (inactive),> 100 µM (inactive),–,–,> 100 µM (inactive),> 100 µM (inactive),> 100 µM (inactive),> 100 µM (inactive),–
COc1cc(/C=C2\[C@H]3c4c(c(OC)c(C)c(OC)c4OC)C[C@@H](C(=O)N2Cc2ccccc2)N3C(=O)OCC(C)C)c(OC)c(C)c1OC,40.6 µM (inactive),> 100 µM (inactive),> 100 µM (inactive),–,> 100 µM (inactive),> 69.8 µM (inactive),47.1 µM (inactive),–,> 100 µM (inactive)
CCOC(=O)CNC1C(NC(C)=O)C(OC)OC2COC(c3ccccc3)OC21 (centres undefined),–,> 100 µM (inactive),> 100 µM (inactive),> 100 µM (inactive),–,> 100 µM (inactive),> 100 µM (inactive),> 100 µM (inactive),> 100 µM (inactive)
CC(=O)C(O)N1C(=O)C=CC1=O (centres undefined),17.3 µM (inactive),1.82 µM (inactive),5.89 µM (inactive),18.7 µM (inactive),1.88 µM (inactive),–,14.7 µM (inactive),5.86 µM (inactive),25.3 µM (inactive)
